{"source": "patent US9889093B2", "about": "“Application of andrographolide in the preparation of a pharmaceutical for treatment of inflammatory bowel disease, andrographolide enteric targeting micropellet, and method for preparation thereof” (TASLY PHARMACEUTICAL GROUP CO., LTD., priority 2013, dated 2018)", "key": {"[1]": {"system": "zebra fish Crohn's disease model", "test": "Zebra fish Crohn's disease model (TNBS), efficacy", "format": "in vivo", "details": "for Inflammation regression ratio: based on neutrophil infiltration; for Number of Neutrophil: intestinal tissue, x ± SE, n = 10; for Ratio with the blank control group: neutrophil number"}, "zebra fish": {"system": "zebra fish", "test": "Exploration of concentration in zebra fish (toxicity and death)", "format": "in vivo", "details": "0.1 to 500 μg/mL in fish farm water, 30 zebra fishes per concentration", "procedure": "Fish farm water of wild-type AB strain zebra fish Crohn's disease model (1 L reverse osmosis water was added with 200 mg instant sea salt with a conductivity of […], pH value of 6.9˜7.2 and hardness of 53.7˜71.6 mg/L CaCO3) was added with the andrographolide in the concentrations of 0 μg/mL, 0.1 μg/mL, 1 μg/mL, 10 μg/mL, 100 μg/mL and 500 μg/mL. At each concentration, 30 zebra fishes were treated, during which death number of the zebra fishes was counted daily and the dead fishes were removed in time. After treatment, the death number of the zebra fishes in each group was analyzed statistically to draw the optimum concentration-effect curve by using JMP software and calculate MNLC. […] As a result, the following four concentrations were selected for efficacy evaluation in Crohn's disease in this study: 50 μg/mL, 100 μg/mL, 250 μg/mL and 500 μg/mL."}, "[2]": {"system": "zebra fish Crohn's disease model", "test": "Zebra fish Crohn's disease model (TNBS), efficacy", "format": "in vivo", "details": "48 hours", "procedure": "Crohn's disease model (mainly inflammation) was built by using TNBS (2,4,6-trinitrobenzenesulfonic acid), and 30 zebra fishes were randomly divided into each treating group. […] Image analysis software was used to analyze the pictures. Moreover, the intestinal mucosal thickness, intestinal lumen diameter and intestinal lumen area were observed carefully under a microscope and the intestinal lumen diameter and intestinal lumen area were analyzed quantitatively. Therapeutical efficacy of the tested drug in zebra fish Crohn's disease was calculated in accordance with the intestinal lumen area in each group. The calculation formula was presented as follows: Therapeutical efficacy (%)=[1−(the administration group−the blank control group)/(the model group−the blank control group)]×100%\nStatistically analyzed results were expressed as mean±SE. Variance analysis was used for comparison among many groups, and Dunnett's T test for comparison between two groups."}, "DSS-induced UC mice": {"system": "DSS-induced UC mice", "test": "DSS-induced UC mouse model, disease active index", "format": "in vivo", "text": "4 Dose Designing and Grouping • 4.1 Grouping: quarantine-qualified 84 mice were randomly divided into 6 groups: the model control group, the positive control group, the tested drug low-dose intragastric group, the tested drug high-dose intragastric group, the tested drug low-dose intracolonical group and the tested drug high-dose intracolonical group, 14 mice per group. All animals drank 5% DSS solution daily for consecutive 14 days to establish UC model. Animals were administrated with the drug for treatment on the 2nd day after being given 5% DSS drinking water. • 4.2 Dose: in this study, dose of administration of the mice in all groups was designed on the basis of client's requirements, and the same doses were adopted in both intragastric and intracolonical groups. Animals were not treated in the model control group, the positive control group (mesalazine enteric tablet, 227.5 mg·kg^−1·d^−1), the andrographolide low-dose intragastric group (60 mg·kg^1·d^−1), the andrographolide high-dose intragastric group (180 mg·kg^−1·d^−1), the andrographolide low-dose intracolonical group (60 mg·kg^−1·d^−1) and the andrographolide high-dose intracolonical group (180 mg·kg^−1·d^−1).\n5 Method • 5.1 Method of making UC model: all animals drank 5% DSS solution daily for consecutive 14 days. • 5.2 Method of administration: on the 2nd day after modeling, the mice were treated intragastrically or intracolonically with the drug at 1 mL/100 g once a day for consecutive 14 days. • 5.3 Method for sampling in experiment: 2 hours after the last administration, the mice were killed by cervical vertebra dislocation and abdomen was opened to separate the colon. Along mesenteric side, the intestinal lumen was cut and rinsed with 4° C. normal saline and spread on a plastic plate. • 5.4 Method for evaluating disease active index (DAI): the disease active index was assessed at the 7th and 14th day after administration. The method was presented together with the following three parameters: the body weight loss percentages (unchanged BW: 0 score, 1˜5: 1 score, 5˜10: 2 score, 10˜15: 3 score, more than 15: 4 score), stool viscosity (normal stool: 0 score, loosen stool: 2 score, diarrhea: 4 score) and blood stool (normal stool: 0 score, occult blood stool: 2 score and positive blood stool: 4 score). Total score of three parameters was divided by 3 to give the DAI, namely DAI=(BW index score+stool character score+stool blood score)/3.\n6 Observation Indices • 6.1 Observation: the general clinical symptoms in the mice were observed daily from the beginning to the end of the experiment, and the stool, mental status and death status were recorded. • 6.2 Body weight: BW was recorded weekly from the beginning to the end of the experiment. • 6.3 Calculation of DAI: DAI was calculated on the 7th and 14th day after administration so as to assess disease activity. • 6.4 The colon mucosal tissue 8˜10 cm away from the anus was sampled, embedded with paraffin and stained with routine HE. Colon mucosal injury was observed by a microscope and histological injury was scored based on the following indices: ulcer inflammatory granuloma, fibrosis and pathological degree.\nData were expressed as mean+standard deviation (x±S). All numerical variables were analyzed with SPSS13.0 software by one-way ANOVA. T-test analysis was used for inter-group comparison."}, "[3]": {"test": "Solubility of the drug in DMSO and fish farm water", "format": "physicochemical"}, "[4]": {"details": "andrographolide high-dose 180 mg/kg, intracolonical"}, "[5]": {"details": "andrographolide high-dose 180 mg/kg, intragastric"}, "[6]": {"details": "andrographolide low-dose 60 mg/kg, intracolonical"}, "[7]": {"details": "andrographolide low-dose 60 mg/kg, intragastric"}}, "data": [{"smiles": "C=C1CC[C@@H]2[C@](C)(CO)[C@H](O)CC[C@@]2(C)[C@@H]1C/C=C1/C(=O)OC[C@H]1O", "note": "[Andrographolide]", "values": [{"measurement": "Intestinal lumen area reduced by (therapeutical efficacy)", "setting": "[1]; andrographolide 500 μg/ml, 48 hours", "value": "65±10.1", "unit": "%"}, {"measurement": "Inflammation regression ratio", "setting": "[1]; andrographolide 50 μg/ml", "value": "45 ± 3.7", "unit": "%"}, {"measurement": "Inflammation regression ratio", "setting": "[1]; andrographolide 50 μg/ml, listed as andrographolide", "value": "45±3.74", "unit": "%"}, {"measurement": "Inflammation regression ratio", "setting": "[1]; andrographolide 100 μg/ml", "value": "46 ± 3.7", "unit": "%"}, {"measurement": "Inflammation regression ratio", "setting": "[1]; andrographolide 100 μg/ml, listed as andrographolide", "value": "46±3.74", "unit": "%"}, {"measurement": "Inflammation regression ratio", "setting": "[1]; andrographolide 250 μg/ml", "value": "63 ± 4.4", "unit": "%"}, {"measurement": "Inflammation regression ratio", "setting": "[1]; andrographolide 250 μg/ml, listed as andrographolide", "value": "63±4.42", "unit": "%"}, {"measurement": "Inflammation regression ratio", "setting": "[1]; andrographolide 500 μg/ml", "value": "79 ± 9.0", "unit": "%"}, {"measurement": "Inflammation regression ratio", "setting": "[1]; andrographolide 500 μg/ml, listed as andrographolide", "value": "79±8.98", "unit": "%"}, {"measurement": "Number of Neutrophil", "setting": "[1]; andrographolide 50 μg/ml", "value": "18 ± 0.54"}, {"measurement": "Number of Neutrophil", "setting": "[1]; andrographolide 100 μg/ml", "value": "17 ± 0.54"}, {"measurement": "Number of Neutrophil", "setting": "[1]; andrographolide 250 μg/ml", "value": "15 ± 0.64"}, {"measurement": "Number of Neutrophil", "setting": "[1]; andrographolide 500 μg/ml", "value": "13 ± 1.30"}, {"measurement": "Ratio with the blank control group", "setting": "[1]; andrographolide 50 μg/ml", "value": "1.97 ± 0.06"}, {"measurement": "Ratio with the blank control group", "setting": "[1]; andrographolide 100 μg/ml", "value": "1.96 ± 0.06"}, {"measurement": "Ratio with the blank control group", "setting": "[1]; andrographolide 250 μg/ml", "value": "1.67 ± 0.07"}, {"measurement": "Ratio with the blank control group", "setting": "[1]; andrographolide 500 μg/ml", "value": "1.40 ± 0.15"}, {"measurement": "Toxicity and death in zebra fish", "setting": "zebra fish", "value": "no toxicity and death were found"}, {"measurement": "Intestinal lumen area reduced by (therapeutical efficacy)", "setting": "[2]; andrographolide 50 μg/ml", "value": "38±12.9", "unit": "%"}, {"measurement": "Intestinal lumen area reduced by (therapeutical efficacy)", "setting": "[2]; andrographolide 100 μg/ml", "value": "49±8.9", "unit": "%"}, {"measurement": "Intestinal lumen area reduced by (therapeutical efficacy)", "setting": "[2]; andrographolide 250 μg/ml", "value": "65±14.7", "unit": "%"}, {"measurement": "DAI on the 7th day", "setting": "DSS-induced UC mice; [4]", "value": "1.36 ± 0.64"}, {"measurement": "DAI on the 14th day", "setting": "DSS-induced UC mice; [4]", "value": "1.35 ± 0.18"}, {"measurement": "DAI on the 7th day", "setting": "DSS-induced UC mice; [5]", "value": "1.43 ± 0.38"}, {"measurement": "DAI on the 14th day", "setting": "DSS-induced UC mice; [5]", "value": "1.64 ± 0.83"}, {"measurement": "DAI on the 7th day", "setting": "DSS-induced UC mice; [6]", "value": "1.67 ± 0.65"}, {"measurement": "DAI on the 14th day", "setting": "DSS-induced UC mice; [6]", "value": "1.77 ± 0.95"}, {"measurement": "DAI on the 7th day", "setting": "DSS-induced UC mice; [7]", "value": "1.63 ± 0.99"}, {"measurement": "DAI on the 14th day", "setting": "DSS-induced UC mice; [7]", "value": "2.01 ± 0.80"}, {"measurement": "solubility", "setting": "[3]; DMSO, organic solvent or mixture", "value": "~250", "unit": "mg/mL"}, {"measurement": "Concentration at which the drug began to precipitate", "setting": "[3]; fish farm water", "value": "≥ 500", "unit": "µg/mL"}]}]}
